Experiment [1] deals with HCVcc. Kind of experiment: HCV foci reduction assay, acute HCVcc infection of Huh7 cells. The experiment is classed as cell-based, Hepatitis C virus (HCV). Conditions: for inhibition at 12.5 µM / inhibition at 25 µM: Hepatitis C virus, Huh-7, read-out: inhibition of HCV foci formation.
The next experiment has as its system Dengue virus (DNV). In words: Dengue virus plaque formation. The experiment is classed as cell-based. Particulars: 12.5 or 25 μM. On the procedure:
To ensure that the inhibition observed was not due to ezetimibe-induced changes in cell proliferation or cytotoxicity, cellular ATP was measured as a read-out of Huh7 cell viability and proliferation and cellular toxicity by adenylate kinase release following treatment with increasing doses of ezetimibe. […] Furthermore, to test the specificity of the observed HCV inhibition, the effect of ezetimibe on entry of another flavivirus, Dengue virus (DNV), was assessed.

The subject of another experiment is HCVcc JFH-1. Kind of experiment: HCV binding versus internalization, cell-associated HCV RNA (FIG. 1). The experiment is classed as cell-based, Hepatitis C virus (HCV). The procedure:
Monolayers of human hepatoma cell line Huh7 were inoculated with HCVcc JFH-1 (cell culture produced HCV JFH-1, which is a specific HCV clone isolated from a Japanese Fulminant Hepatitis patient) at an MOI of 0.1 FFU/cell for 6 hours in the presence or absence of increasing concentrations of ezetimibe. Cultures were washed extensively and cell associated RNA was collected 6 and 30 hours post-infection (p.i.) to determine the amount of bound and internalized virus, respectively. […] Results are graphed as means±s.e.m. for triplicate samples. The data presented are representative of three independent experiments. Assay background (i.e., HCV RNA level detected in uninfected samples) is equal to ˜0.5−1.0×10^2 copies/μg total cellular RNA. Significant reduction in HCV RNA levels relative to mock-treated cultures is denoted by a single asterisk (p<0.05, one-way ANOVA and Tukey's post hoc t test).
To decipher whether ezetimibe inhibits HCV cellular binding or subsequent internalization, cell-associated HCV RNA and protein in mock- and ezetimibe-treated HCVcc-infected cultures was examined.

The subject of experiment [2] is HCV. In words: Chronic HCV infection treated with IFN-β and ezetimibe, weekly RT-qPCR for 8 weeks. The experiment is classed as cell-based, Hepatitis C virus (HCV). Particulars: alone, during 8 weeks. The text has this:
Intracellular RNA was collected from triplicate wells weekly for 8 weeks post-treatment and HCV RNA was quantified by RT-qPCR.
On the technique in general: In qPCR the cycle at which signal appears reflects the starting amount.

Experiment [3] has as its system HCV. Kind of experiment: Prevention of HCV infection in mice with chimeric human livers. The experiment is classed as in vivo. Conditions: 10 mg/kg/day oral gavage from ~7 days prior to infection. The source says: Alternatively, severe combined immunodeficient (SCID)/urokinase plasminogen activator (uPA) mice can be used. Mice are transplanted with primary human hepatocytes according to conventional methods (Azuma, et al. (2007) Nat. Biotechnol. 25:903-910; Bissig, et al. (2007) Proc. Natl. Acad. Sci. USA 104:20507-20511) and monitored for two months post-transplantation to assess repopulation efficiency by measuring human albumin serum levels. Using these models, mice can be assessed for the prevention of HCV infection or the inhibition of an already established infection.
Mice are injected with HCV positive human serum (of any HCV genotype) and HCV RNA serum levels are quantified daily and/or weekly to assess the efficacy with which the treatments reduces the amplification of HCV RNA levels. Evidence that ezetimibe reduces the amplification HCV levels in vivo, as compared to untreated animals, provides in vivo evidence that ezetimibe is an effective treatment for HCV in patients.

Experiment [4] relates to HCVcc. In words: Steady-state HCVcc RNA levels in chronically infected Huh7 cultures, 24-96 h. Conditions: 30 μM, 24-96 hours post-treatment. The experiment is classed as cell-based, Hepatitis C virus (HCV). On the procedure: Huh7 cultures were inoculated with HCVcc at an MOI of 0.01 FFU cell-1. Infected cultures were maintained for an additional 10 days to allow HCV RNA to reach steady-state levels. Cultures were then vehicle-treated, treated with ezetimibe (30 μM) or 2′-C-methylcytidine (12.5 μM). Fresh medium containing the specified treatments was replenished every day throughout the course of the experiment. Intracellular RNA was collected from triplicate wells at 24, 48, 72 and 96 hours post-treatment and HCV RNA was quantified by RT-qPCR and normalized to GAPDH.

The subject of experiment [5] is HCVcc. Kind of experiment: Secretion of infectious HCVcc, extracellular infectivity titration. The experiment is classed as cell-based, Hepatitis C virus (HCV). Particulars: 30 μM, 24-96 hours post-treatment. The procedure: Cell supernatants were serially diluted 10-fold in cDMEM and 100 μl was used to infect, in triplicate, 4×10^3 naïve Huh7 cells per well in 96-well plates (BD Biosciences). The inoculum was incubated with cells for 24 hours at 37° C. and then overlayed with 150 μl complete DMEM containing 0.4% methylcellulose (w/v) (Fluka BioChemika, Switzerland) to give a final concentration of 0.25% methylcellulose. Seventy-two hours post-infection, medium was removed, cells were fixed with 4% paraformaldehyde (Sigma) and immunohistochemical staining for HCV E2 was performed. […] The HCV E2 glycoprotein was detected by incubation at room temperature with 1×PBS containing 0.5% (v/v) TRITON X-100 and 3% (w/v) BSA and a 1:500 dilution of the human monoclonal anti-HCV E2 antibody C1. Bound C1 was subsequently detected by a 1 hour incubation with a 1:1000 dilution of an HRP-conjugated anti-human antibody (Pierce, Rockford, Ill.) followed by a 30 minute incubation with an AEC detection substrate (BD Biosciences). […] Viral infectivity titers are expressed as FFU per milliliter of supernatant (FFU/ml), determined by the average number of E2-positive foci detected in triplicate samples at the highest HCV-positive dilution.
Huh7 cultures were inoculated with HCVcc at an MOI of 0.01 FFU cell-1. […] Infectivity titers are expressed as mean FFU/ml±SD for triplicate samples.

In experiment [6] the test system is HCV. In words: HCV infection initiation in chimeric mice transplanted with human hepatocytes. The experiment is classed as in vivo.
[7] abbreviates: co-incubated with HCVcc for 12 h.
Where [8] appears, read: pre-treatment 6 h prior to infection, compared to untreated cultures.

Like-named read-outs stand apart in the source and are kept apart here.

Take `O=C1[C@H](CC[C@H](O)c2ccc(F)cc2)[C@@H](c2ccc(O)cc2)N1c1ccc(F)cc1` [ezetimibe, 1-(4-fluorophenyl)-(3R)-[3-(4-fluorophenyl)-(3S)-hydroxypropyl]-(45)-(4-hydroxyphenyl)-2-azetidinone]: in the experiment on HCVcc [1] (setting [7]), the inhibition (usually the change of the read-out against control, counted positive when it falls) at 12.5 µM is 90% and the inhibition at 25 µM stood at 99%. In the experiment with HCVcc [1] (setting [8]), the inhibition at 12.5 µM stood at 85% and the inhibition at 25 µM turned out to be 95%. Also, the “degree of inhibition of HCV foci formation” value with HCVcc [1] (added to cells post-infection) is recorded as “greatly reduced”. In the experiment with Dengue virus (DNV), the “reduction in DNV plaque formation” value is on record as “no significant reduction”. Further, in the experiment with HCVcc JFH-1 (6 hours p.i.), the “virion binding (cell-associated HCV RNA)” value is reported as “not binding”. In addition, the “HCV entry/internalization (HCV RNA expansion, de novo NS5A expression)” value in the experiment with HCVcc JFH-1 (later time points (30 hours p.i.)) was “inhibits HCV internalization”. Also, the “steady-state intracellular HCV RNA levels” value with HCV [2] was “did not reduce HCV infection”. Moreover, the “establishment of HCV infection (serum HCV RNA)” value in the experiment with HCV [3] was “prevents the establishment of HCV infection”. Besides, the “steady state HCVcc RNA levels” value with HCVcc [4] was “did not inhibit steady state HCVcc RNA levels”. The “secretion of infectious HCVcc (infectivity titers)” value with HCVcc [5] is listed as “did not inhibit secretion of infectious HCVcc”. Moreover, the HCV infection initiation result with HCV [6] is reported as “inhibits HCV infection initiation”.
